Measurements as given in ChEMBL document CHEMBL3739302, “Synthesis of 5-trifluoromethyl-2-sulfonylpyridine PPARβ/δ antagonists: Effects on the affinity and selectivity towards PPARβ/δ” (Bioorg Med Chem, 2016).
Blank lines part the entries; values can stand above or below the compound they belong to. The source made the active and inactive calls. No cut-off for these calls is given here.

Experiments:
[1] = target: T1, Peroxisome proliferator-activated receptor alpha (Homo sapiens) (UniProt Q07869); assay: Binding affinity to GST-PPAR-alpha LBP (unknown origin) at 1 uM by TR-FRET assay
T1 sequence (whole entry): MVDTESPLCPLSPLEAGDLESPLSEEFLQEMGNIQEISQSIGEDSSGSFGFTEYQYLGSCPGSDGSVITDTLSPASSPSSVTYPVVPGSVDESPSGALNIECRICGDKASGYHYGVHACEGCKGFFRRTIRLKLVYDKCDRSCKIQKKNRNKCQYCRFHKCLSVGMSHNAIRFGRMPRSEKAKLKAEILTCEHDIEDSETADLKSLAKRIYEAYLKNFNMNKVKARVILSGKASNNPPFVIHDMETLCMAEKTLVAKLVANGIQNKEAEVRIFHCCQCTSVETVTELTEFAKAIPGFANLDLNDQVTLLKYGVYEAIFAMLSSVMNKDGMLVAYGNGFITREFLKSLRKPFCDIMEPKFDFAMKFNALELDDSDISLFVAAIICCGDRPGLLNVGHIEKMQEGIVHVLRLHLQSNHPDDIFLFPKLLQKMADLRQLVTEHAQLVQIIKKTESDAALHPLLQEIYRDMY

[2] = target: T2, Peroxisome proliferator-activated receptor gamma (Homo sapiens) (UniProt P37231); assay: Binding affinity to GST-PPAR-gamma LBP (unknown origin) at 1 uM after 1 hr by TR-FRET assay
T2 sequence (whole entry): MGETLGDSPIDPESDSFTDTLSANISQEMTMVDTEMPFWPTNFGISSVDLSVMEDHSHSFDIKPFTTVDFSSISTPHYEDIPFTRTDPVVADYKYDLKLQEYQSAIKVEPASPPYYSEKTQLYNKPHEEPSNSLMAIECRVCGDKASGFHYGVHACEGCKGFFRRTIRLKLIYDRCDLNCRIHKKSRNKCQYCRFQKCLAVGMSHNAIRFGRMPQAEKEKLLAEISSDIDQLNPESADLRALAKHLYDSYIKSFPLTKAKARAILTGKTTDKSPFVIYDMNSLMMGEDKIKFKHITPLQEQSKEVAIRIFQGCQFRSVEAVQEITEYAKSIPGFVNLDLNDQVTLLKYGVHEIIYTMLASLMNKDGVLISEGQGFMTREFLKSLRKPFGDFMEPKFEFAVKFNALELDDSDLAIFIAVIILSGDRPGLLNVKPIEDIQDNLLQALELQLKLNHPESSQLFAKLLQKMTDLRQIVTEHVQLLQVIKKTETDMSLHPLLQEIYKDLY

[3] = target: T3, Peroxisome proliferator-activated receptor delta (Homo sapiens, UniProt Q03181); assay: Binding affinity to GST-PPAR-beta/delta LBP (unknown origin) after 20 mins by TR-FRET assay
T3 sequence (Q03181 whole entry): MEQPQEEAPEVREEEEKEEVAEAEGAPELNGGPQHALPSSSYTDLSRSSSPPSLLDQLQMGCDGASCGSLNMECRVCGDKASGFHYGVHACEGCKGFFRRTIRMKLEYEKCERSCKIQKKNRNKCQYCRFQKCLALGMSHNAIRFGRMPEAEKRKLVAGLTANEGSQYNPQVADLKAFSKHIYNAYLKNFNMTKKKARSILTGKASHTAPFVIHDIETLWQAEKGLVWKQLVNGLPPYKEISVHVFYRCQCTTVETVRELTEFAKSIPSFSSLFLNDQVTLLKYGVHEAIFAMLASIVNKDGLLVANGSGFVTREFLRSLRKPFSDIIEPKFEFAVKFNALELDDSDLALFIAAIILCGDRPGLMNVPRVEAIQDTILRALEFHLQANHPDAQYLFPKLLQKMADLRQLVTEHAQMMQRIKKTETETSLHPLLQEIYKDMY

[4] = target: T3, Peroxisome proliferator-activated receptor delta; assay: Binding affinity to GST-PPAR-beta/delta LBP (unknown origin) after 40 mins by TR-FRET assay
[5] = target: T3, Peroxisome proliferator-activated receptor delta; assay: Binding affinity to GST-PPAR-beta/delta LBP (unknown origin) after 1 hr by TR-FRET assay
[6] = target: T3, Peroxisome proliferator-activated receptor delta; assay: Binding affinity to GST-PPAR-beta/delta LBP (unknown origin) after 2 hrs by TR-FRET assay
[7] = target: T3, Peroxisome proliferator-activated receptor delta; assay: Binding affinity to GST-PPAR-beta/delta LBP (unknown origin) after 3 hrs by TR-FRET assay
[8] = target: T1, Peroxisome proliferator-activated receptor alpha (Homo sapiens); assay: Binding affinity to GST-PPAR-alpha LBP (unknown origin) at 1 and 10 uM after 1 hr by TR-FRET assay
[9] = target: T1, Peroxisome proliferator-activated receptor alpha (Homo sapiens); assay: Binding affinity to GST-PPAR-alpha LBP (unknown origin) at 1 and 10 uM after 24 hrs by TR-FRET assay
[10] = target: T4, Peroxisome proliferator-activated receptor delta (Homo sapiens) (UniProt Q03181); assay: Binding affinity to GST-PPAR-beta/delta LBP (unknown origin) at 1 uM after 1 hr by TR-FRET assay
T4 sequence (whole entry): T3 sequence (Q03181 whole entry)

[11] = target: T2, Peroxisome proliferator-activated receptor gamma (Homo sapiens); assay: Binding affinity to GST-PPAR-gamma LBP (unknown origin) at 10 uM after 1 hr by TR-FRET assay
[12] = target: T2, Peroxisome proliferator-activated receptor gamma (Homo sapiens); assay: Binding affinity to GST-PPAR-gamma LBP (unknown origin) at 1 uM after 24 hrs by TR-FRET assay
[13] = target: T2, Peroxisome proliferator-activated receptor gamma (Homo sapiens); assay: Binding affinity to GST-PPAR-gamma LBP (unknown origin) at 10 uM after 24 hrs by TR-FRET assay
[14] = target: T3, Peroxisome proliferator-activated receptor delta; assay: Binding affinity to GST-PPAR-beta/delta LBP (unknown origin) after 24 hrs by TR-FRET assay
[15] = target: T1, Peroxisome proliferator-activated receptor alpha (Homo sapiens); assay: Binding affinity to GST-PPAR-alpha LBP (unknown origin) at 1 uM after 2 hrs by TR-FRET assay

Activity [10]: Active
Activity [1]: Active
Activity [2]: Active
IC50 [3]: 1930 nM
IC50 [4]: 930 nM
IC50 [5]: 751 nM
IC50 [6]: 448 nM
IC50 [7]: 320 nM
Activity [8]: inactive
Activity [11]: Active
Activity [9]: inactive
Activity [12]: Active
Activity [13]: Active
Structure (SMILES): O=C(NCCS(=O)(=O)c1ccc(C(F)(F)F)cn1)c1ccc2ccccc2c1

Activity [1]: Active
Activity [2]: Active
Structure (SMILES): O=C(NCCS(=O)(=O)c1ccc(C(F)(F)F)cn1)c1ccc2ccncc2c1

Activity [1]: Active
Structure (SMILES): O=C(NCCS(=O)(=O)c1ccc(C(F)(F)F)cn1)c1ccc2ncccc2c1

Activity [1]: Active
Structure (SMILES): O=C(NCCS(=O)(=O)c1ccc(C(F)(F)F)cn1)c1cccc2cccnc12

Activity [10]: Active
Activity [1]: Active
Activity [2]: Active
Structure (SMILES): O=C(NCCS(=O)(=O)c1ccc(C(F)(F)F)cn1)c1cccc2ccccc12

Activity [1]: Active
Structure (SMILES): O=C(NCCS(=O)(=O)c1ccc(C(F)(F)F)cn1)c1cccc2ncccc12

Activity [1]: Active
Activity [2]: Active
Structure (SMILES): O=C(NCCS(=O)(=O)c1ccc(C(F)(F)F)cn1)c1nccc2ccccc12

Activity [1]: Active
Structure (SMILES): O=C(NCCS(=O)(=O)c1ccc(C(F)(F)F)cn1)c1ccc2cnccc2c1

Activity [1]: Active
Structure (SMILES): O=C(NCCS(=O)(=O)c1ccc(C(F)(F)F)cn1)c1cccc2ccncc12

Activity [1]: Active
Structure (SMILES): O=C(NCCS(=O)(=O)c1ccc(C(F)(F)F)cn1)c1ccccc1

Activity [1]: Active
Structure (SMILES): O=C(NCCS(=O)(=O)c1ccc(C(F)(F)F)cn1)c1ccc2ccccc2n1

Activity [1]: Active
Structure (SMILES): O=C(NCCS(=O)(=O)c1ccc(C(F)(F)F)cn1)c1cccc2cnccc12

Activity [1]: Active
Structure (SMILES): O=C(NCCS(=O)(=O)c1ccc(C(F)(F)F)cn1)c1ccc2cccnc2c1

Activity [1]: Active
Structure (SMILES): O=C(NCCS(=O)(=O)c1ccc(C(F)(F)F)cn1)c1cccnc1

Activity [1]: Active
Structure (SMILES): O=C(NCCS(=O)(=O)c1ccc(C(F)(F)F)cn1)c1cc2ccccc2cn1

Activity [1]: Active
Structure (SMILES): O=C(NCCS(=O)(=O)c1ccc(C(F)(F)F)cn1)c1cncc2ccccc12

Activity [2]: Active
IC50 [4]: 17600 nM
IC50 [5]: 6820 nM
IC50 [6]: 2320 nM
IC50 [7]: 1430 nM
IC50 [14]: 241 nM
Activity [8]: inactive
Activity [11]: Active
Activity [9]: inactive
Activity [12]: Active
Activity [13]: Active
Structure (SMILES): O=C(NCCS(=O)(=O)c1ccc(C(F)(F)F)cn1)c1cnc2ccccc2c1

Activity [1]: Active
Activity [15]: Active
Structure (SMILES): O=C(NCCS(=O)(=O)c1ccc(C(F)(F)F)cn1)c1ccnc2ccccc12

The remaining lines, values behind:

Structure (SMILES): O=C(COc1ccccc1)NCCS(=O)(=O)c1ccc(C(F)(F)F)cn1
Activity [1]: Active

Structure (SMILES): Cc1nc(-c2ccc(C(F)(F)F)cc2)sc1C(=O)NCCS(=O)(=O)c1ccc(C(F)(F)F)cn1
Activity [2]: Active
IC50 [3]: 949 nM
IC50 [4]: 581 nM
IC50 [5]: 423 nM
IC50 [6]: 301 nM
IC50 [7]: 284 nM
Activity [8]: inactive
Activity [9]: inactive

Structure (SMILES): O=C(NCCS(=O)(=O)c1ccc(C(F)(F)F)cn1)c1cccc2c1CCCC2
Activity [1]: Active
Activity [2]: Active

Structure (SMILES): O=C(NCCS(=O)(=O)c1ccc(C(F)(F)F)cn1)c1ccc2c(c1)CCCC2
Activity [2]: Active
IC50 [3]: 4220 nM
IC50 [4]: 1960 nM
IC50 [5]: 1530 nM
IC50 [6]: 907 nM
IC50 [7]: 598 nM
IC50 [14]: 271 nM
Activity [8]: inactive
Activity [11]: Active
Activity [9]: inactive
Activity [12]: Active
Activity [13]: Active

Structure (SMILES): COc1ccc(C(=O)NCCS(=O)(=O)c2ccc(C(F)(F)F)cn2)cc1
Activity [10]: Active
Activity [1]: Active

Structure (SMILES): O=C(CCCS(=O)(=O)c1ccc(C(F)(F)F)cn1)c1cccc2ccccc12
Activity [1]: Active

Structure (SMILES): CC(C)C(=O)NCCS(=O)(=O)c1ccc(C(F)(F)F)cn1
Activity [1]: Active

Structure (SMILES): CN1CCN(c2ccc(/C=C(\C#N)c3ccccc3Br)cc2)CC1
IC50 [3]: 29 nM
IC50 [4]: 30.4 nM
IC50 [5]: 32.7 nM
IC50 [6]: 37 nM
IC50 [7]: 40.1 nM
IC50 [14]: 48 nM

Structure (SMILES): O=C(NCCS(=O)(=O)c1ccc(C(F)(F)F)cn1)c1ccc(Cl)cc1
Activity [2]: Active
IC50 [3]: 1330 nM
IC50 [4]: 825 nM
IC50 [5]: 648 nM
IC50 [6]: 284 nM
IC50 [7]: 233 nM
IC50 [14]: 1.21 nM
Activity [8]: inactive
Activity [11]: Active
Activity [9]: inactive
Activity [13]: Active

Structure (SMILES): O=C(c1ccc2ccccc2c1)N(CCS(=O)(=O)c1ccc(C(F)(F)F)cn1)Cc1ccccc1
Activity [1]: Active

Structure (SMILES): O=C(CCCS(=O)(=O)c1ccc(C(F)(F)F)cn1)c1ccc2ccccc2c1
Activity [1]: Active

Structure (SMILES): CC(C)(C)C(=O)NCCS(=O)(=O)c1ccc(C(F)(F)F)cn1
Activity [1]: Active

Structure (SMILES): CCN(CCS(=O)(=O)c1ccc(C(F)(F)F)cn1)C(=O)c1ccc2ccccc2c1
Activity [1]: Active

Structure (SMILES): CN(CCS(=O)(=O)c1ccc(C(F)(F)F)cn1)C(=O)c1ccc2ccccc2c1
Activity [1]: Active
Activity [2]: Active

Structure (SMILES): O=C(NCCS(=O)(=O)c1ccc(C(F)(F)F)cn1)C12CC3CC(CC(C3)C1)C2
Activity [1]: Active

Structure (SMILES): O=C(NCCS(=O)(=O)c1ccc(C(F)(F)F)cn1)c1ccc(F)cc1
Activity [10]: Active
Activity [1]: Active
Activity [2]: Active
